This is an account of results in US20240408071A1, “NOVEL COMBINATION OF SEROTONIN RECEPTOR (5-HTR2B) ANTAGONIST AND AN IMMUNOMODULATOR AND CHEMOTHERAPEUTIC DRUGS FOR INHIBITION OF CANCER” (NATIONAL CENTRE FOR CELL SCIENCE, priority 2021, published 2024).

For one assay, the system named is MC38 cells. Kind of assay: MTT cell viability assay. It counts as cell-based, mouse. Conditions: graded dose; reduced serum media; 48 hours of stimulation. Here is the method: FIG. 6 depicts that 5-HTR2B signalling in colon cancer affects cell proliferation and viability: Colon cancer MC38 cells were treated with serotonin (100 μM), 5-HTR2B agonist (BW-723C86; 50 μM), or 5-HTR2B antagonist (SB-215505; 50 μM) for 48 hours, and cell cycle analysis was performed by propidium iodide staining using flow cytometry. MC38 cells were also treated with a graded dose of 5-HTR2B agonist (BW-723C86) or serotonin. MTT assay was performed to measure cell viability. (A) After treatment with 5-HTR2B agonist BW-723C86, serotonin, or 5-HTR2B antagonist SB-215505, the relative cell cycle analysis is shown. (B) Relative cell viability data of MC38 cells following treatment of graded doses of 5-HTR2B agonist BW-723C86 or serotonin are shown. The data shown are representative of one of the three independent experiments. (C) MC38 tumor sections from the control tumor and 5-HTR2B antagonist treated tumor were stained for CD31 and the number of CD31^+ micro-blood vessels/mm^2 of tissue sections was counted and plotted to observe angiogenesis. Error bar represents ±standard error of the mean (SEM).
MC38 cells were cultured at a density of 0.5×10^4 cells/well in 96 well plates (flat bottom) and were allowed to adhere for 24 hours. […] Then, MTT crystals were dissolved with DMSO, and the reading was taken at 590 nm in an ELISA reader (Thermofisher). […]

A further assay relates to 4T1-Luc2 cells. The assay is described as follows: 4T1-Luc2 breast cancer model, tumor volume. It is filed as in vivo, BALB/c mice. Conditions: RS-127445 2 mg/kg/day + paclitaxel 2 mg/kg/alternate days; 4T1-luc2 model (FIG. 16A). How it is done: FIG. 7 depicts that antagonizing the 5-HTR2B in mice inhibits breast and colon tumor growth: (A) MC38 colon cancer cells were injected subcutaneously into the right flank of C57BL/6 mice. […] Tumor volumes were measured and plotted. (B) MC38 colon cancer cells were injected subcutaneously into the right flank of C57BL/6 mice. After seven days when tumors became palpable, one group was treated with 5-HTR7 antagonist SB-269970 (n=6 mice; 3 mg/kg/day) or left untreated (n=6 mice). Tumor volume was measured and plotted. (C) After seven days of the setting of tumor growth, one group was treated with a serotonin transporter blocker (SSRI) sertraline hydrochloride (n=6 mice; 15 mg/kg/week) or left untreated (n=6 mice). Tumor volume was measured and plotted. (D) C57BL/6 mice were given subcutaneously injected MC38 cells. After seven days of tumor growth, one group of mice was treated with different doses of 5-HTR2B antagonist SB-215505 (n=6). Tumor volume was measured and plotted. […] Tumor volume was measured and plotted. […] Tumor growth was measured and plotted. […] Tumour volumes were measured and plotted. […] Tumour volumes were measured and plotted. […]
FIG. 16 depicts the effect of the 5-HTR2B antagonist on the FDA-approved chemotherapy drug treatment: (A) BALB/C mice were inoculated with 4T1-Luc2 cells in the mammary fat pad. […] Tumor volume was measured and plotted. […]

The structures appear in SMILES notation.

Take `CC(N)Cc1c[nH]c2ccc(OCc3cccs3)cc12` (centres unmarked) [BW-723C86]: in the assay with MC38 cells, the “viability of MC38 cells” value was “enhanced the viability of MC38 cells”.

Turning to `CC(C)c1cc(-c2ccc(F)c3ccccc23)nc(N)n1` [RS-127445], the “tumor growth, combination with paclitaxel” value in the assay with 4T1-Luc2 cells is on record as “much better response by reducing tumor growth than any of them alone”.
